The assay has as its system fibroblast to myofibroblast transdifferentiation (primary human lung fibroblasts and primary rodent HSCs). As to the kind of experiment: High content imaging and western based assay of fibroblast to myofibroblast transdifferentiation (α-SMA). Format: cell-based. To be noted: graded, TGF-β induced fibroblast to myofibroblast transdifferentiation. The text has this: A high content imaging assay, based on α-SMA staining and cell morphological changes associated with fibroblast to myofibroblast transdifferentiation, was established using primary human lung fibroblasts and primary rodent HSCs. Conditions, involving serum starvation and subsequent TGF-β treatment, were identified that facilitate robust in vitro transdifferentiation in a miniaturized (384 well plate) format that is amenable to high throughput small molecule screening. A selective ALK-5 TGF-β1 receptor inhibitor (SB-431542) was used as a positive control. […] This assay was used to identify a hit compound (itraconazole) and was used to evaluate focused panels of itraconazole analogues generated from medicinal chemistry efforts.
The activity of Itraconazole and its analogues was confirmed by analyzing changes in gene expression of multiple genes associated with fibroblast to myofibroblast transdifferentiation using biochemical methods (i.e., Western blot and RT-PCR). These 4-day assays were used to evaluate sets of 6 compounds at a time in 4-point dose response fashion.
After 24 hour incubation, cells were treated with the indicated doses of itraconazole for 48 hours in the presence of 10 ng/mL of TGF-β1 in hepatic stellate medium. Following fixation and staining with an anti smooth muscle actin antibody, cell morphology was analyzed with a Cellomics cell insight imaging reader (FIG. 1 for representative images). Cells were analyzed for mean cellular area of a-SMA staining (FIG. 5a) or mean fluorescence intensity of SMA staining (FIG. 5b).
After 24 incubation, medium was changed to assay medium containing TGF-β1 (10 ng/mL) and simultaneously treated with itraconazole (10 μM), SB431542 (10 μM) or vehicle control (FIG. 6).

`CCC(C)n1ncn(-c2ccc(N3CCN(c4ccc(OC[C@@H]5CO[C@@](Cn6nccn6)(c6ccc(S(C)(=O)=O)cc6)O5)cc4)CC3)cc2)c1=O` (stereo partly shown) [Compound 44] gave a 50% effective concentration (EC50) of 5 to 30 µM.
Regarding `CCC(C)n1cnn(-c2ccc(N3CCN(c4ccc(OC[C@@H]5CO[C@@](Cn6nc7ccccc7n6)(c6ccc(F)cc6F)O5)cc4)CC3)cc2)c1=O` (stereo partly shown) [Compound 12], the EC50 is 5 to 30 µM.
The same measure for `CC(C)n1ncn(-c2ccc(N3CCN(c4ccc(OC[C@@H]5CO[C@@](Cn6cncn6)(c6ccc(F)cc6F)O5)cc4)CC3)cc2)c1=O` [Compound 13]: 5 to 30 µM; for `CCC(C)n1ncn(-c2ccc(N3CCN(c4ccc(OC[C@@H]5CO[C@@](Cn6nccn6)(c6ccc(Cl)cc6Cl)O5)cc4)CC3)cn2)c1=O` (stereo partly shown) [Compound 25]: 5 to 30 µM.
`CCC(C)n1ncn(-c2ccc(N3CCN(c4ccc(OC[C@@H]5CO[C@@](Cn6nccn6)(C(C)C)O5)cc4)CC3)cc2)c1=O` (stereo partly shown) [Compound 90]: the half-maximal effective concentration (EC50) was 5 to 30 µM.
With `CCC(C)n1ncn(-c2ccc(N3CCN(c4ccc(OC[C@@H]5CO[C@@](Cn6nccn6)(c6ccc(Cl)cc6Cl)O5)cc4C#N)CC3)cc2)c1=O` (stereo partly shown) [Compound 52] the figure was 0.5 to 5 µM; with `CCC(C)n1ncn(-c2ccc(N3CCN(c4ccc(OC[C@@H]5CO[C@@](Cn6nccn6)(c6cccnc6)O5)cc4)CC3)cc2)c1=O` (stereo partly shown) [Compound 82], 5 to 30 µM; with `CCC(C)n1cnn(-c2ccc(N3CCN(c4ccc(OC[C@@H]5CO[C@@](Cn6nnc7ccccc76)(c6ccc(F)cc6F)O5)cc4)CC3)cc2)c1=O` (stereo partly shown) [Compound 8], 0.5 to 5 µM.
`CCC(C)n1ncn(-c2ccc(N3CCN(c4ccc(OC[C@@H]5CO[C@@](Cn6nccn6)(c6ccc(Br)cc6)O5)cc4)CC3)cc2)c1=O` (stereo partly shown) [Compound 35]: the half-maximal effective concentration (EC50) is 0.5 to 5 µM.
The same measure for `CCC(C)n1ncn(-c2ccc(N3CCN(c4ccc(OC[C@@H]5CO[C@@](Cn6nccn6)(c6ccc(Cl)cc6Cl)O5)cc4Cl)CC3)cc2)c1=O` (stereo partly shown) [Compound 53]: 0.5 to 5 µM; for `CCC(C)n1ncn(-c2ccc(N3CCN(c4ccc(OC[C@@H]5CO[C@@](Cn6nccn6)(c6ccc(Cl)cc6Cl)O5)c(C)c4)CC3)cc2)c1=O` (stereo partly shown) [Compound 46]: 5 to 30 µM; for `CCC(C)n1ncn(-c2ccc(N3CCN(c4ccc(OC[C@@H]5CO[C@@](Cn6nccn6)(c6ccccc6C(F)(F)F)O5)cc4)CC3)cc2)c1=O` (stereo partly shown) [Compound 43]: 5 to 30 µM.
Turning to `CCC(C)n1ncn(-c2ccc(N3CCN(c4ccc(OC[C@@H]5CO[C@@](Cn6nc(Br)nc6Br)(c6ccc(F)cc6F)O5)cc4)CC3)cc2)c1=O` (stereo partly shown) [Compound 11], the EC50 was 5 to 30 µM.
Take `CCC(C)n1ncn(-c2ccc(N3CCN(c4ccc(OC[C@@H]5CO[C@@](Cn6cncn6)(c6ccc(F)cc6F)O5)cc4)CC3)cc2)c1=O` (stereo partly shown) [Compound 6]: the EC50 lay in the range of 0.5 to 5 µM.
Regarding `CCC(C)n1cnn(-c2ccc(N3CCN(c4ccc(OC[C@@H]5CO[C@@](Cn6cnc(C)n6)(c6ccc(F)cc6F)O5)cc4)CC3)cc2)c1=O` (stereo partly shown) [Compound 5], the EC50 was in the range of 5 to 30 µM.
Compound `CCC(C)n1ncn(-c2ccc(N3CCN(c4ccc(OC[C@@H]5CO[C@@](Cn6nccn6)(c6ccccc6OC)O5)cc4)CC3)cc2)c1=O` (stereo partly shown) [Compound 45] came in with an EC50 of 5 to 30 µM.
The same measure for `CCC(C)n1ncn(-c2ccc(N3CCN(c4ccc(OC[C@@H]5CO[C@@](Cn6nccn6)(c6ccc(C(F)(F)F)cc6)O5)cc4)CC3)cc2)c1=O` (stereo partly shown) [Compound 38]: 0.5 to 5 µM.
The same measure for `CCC(C)n1ncn(-c2ccc(N3CCN(c4ccc(OC[C@@H]5CO[C@](Cn6nc7ccccc7n6)(c6ccc(Cl)cc6Cl)O5)cc4)CC3)cc2)c1=O` (mixture of isomers) [Compound 17]: 5 to 30 µM.
`CCC(C)n1ncn(-c2ccc(N3CCN(c4ccc(OC[C@@H]5CO[C@@](Cn6cnc(C(F)(F)F)n6)(c6ccc(F)cc6F)O5)cc4)CC3)cc2)c1=O` (stereo partly shown) [Compound 10]: the 50% effective concentration (EC50) lay in the range of 5 to 30 µM.
With `CCC(C)n1ncn(-c2ccc(N3CCN(c4ccc(OC[C@@H]5CO[C@@](Cn6nccn6)(c6ccc(Cl)cc6Cl)O5)cc4OC)CC3)cc2)c1=O` (stereo partly shown) [Compound 51], the EC50 lay within 0.5 to 5 µM.
With `CC(O)C(C)n1ncn(-c2ccc(N3CCN(c4ccc(OC[C@@H]5CO[C@@](Cc6ccnnc6)(c6ccc(Cl)cc6Cl)O5)cc4)CC3)cc2)c1=O` (stereo partly shown) [Compound 29] the figure was < 0.5 µM.
The same measure for `CCC(C)n1ncn(-c2ccc(N3CCN(c4ccc(OC[C@@H]5CO[C@@](Cn6nccn6)(c6ccc(Cl)cc6Cl)O5)c(Cl)c4)CC3)cc2)c1=O` (stereo partly shown) [Compound 48]: 0.5 to 5 µM; for `CCC(C)n1ncn(-c2ccc(N3CCN(c4ccc(OC[C@@H]5CO[C@@](Cn6nccn6)(c6ccc(Cl)cc6Cl)O5)c(OC)c4)CC3)cc2)c1=O` (stereo partly shown) [Compound 47]: 5 to 30 µM.
With `CCC(C)n1ncn(-c2ccc(N3CCN(c4ccc(OC[C@@H]5CO[C@@](Cn6cnc(Br)n6)(c6ccc(F)cc6F)O5)cc4)CC3)cc2)c1=O` (stereo partly shown) [Compound 9] the figure was 5 to 30 µM; with `CCc1cc(N2CCN(c3ccc(-n4cnn(C(C)CC)c4=O)cc3)CC2)ccc1OC[C@@H]1CO[C@@](Cn2nccn2)(c2ccc(Cl)cc2Cl)O1` (stereo partly shown) [Compound 80], 5 to 30 µM; with `CCC(C)n1ncn(-c2ccc(N3CCN(c4ccc(OC[C@@H]5CO[C@@](Cn6nccn6)(C6CCC6)O5)cc4)CC3)cc2)c1=O` (stereo partly shown) [Compound 88], 0.5 to 5 µM.
Regarding `CCC(C)n1cnn(-c2ccc(N3CCN(c4ccc(OC[C@@H]5CO[C@@](Cn6ccc(C)n6)(c6ccc(F)cc6F)O5)cc4)CC3)cc2)c1=O` (stereo partly shown) [Compound 4], the EC50 was 5 to 30 µM.
The same measure for `CCC(C)n1ncn(-c2ccc(N3CCN(c4ccc(OC[C@@H]5CO[C@](Cn6nccn6)(c6ccc(Cl)cc6Cl)O5)cc4)CC3)cc2)c1=O` (mixture of isomers) [Compound 18]: 5 to 30 µM.
Consider `CCC(C)n1cnn(-c2ccc(N3CCN(c4ccc(OC[C@@H]5CO[C@@](Cn6nccn6)(c6ccc(F)cc6F)O5)cc4)CC3)cc2)c1=O` (stereo partly shown) [Compound 3], for which the EC50 lay in the range of 5 to 30 µM.
The same measure for `CCC(C)n1ncn(-c2ccc(N3CCN(c4ccc(OC[C@@H]5CO[C@@](Cn6nccn6)(c6cc(Cl)cc(Cl)c6)O5)cc4)CC3)cc2)c1=O` (stereo partly shown) [Compound 31]: 0.5 to 5 µM; for `CCC(C)n1ncn(-c2ccc(N3CCN(c4ccc(OC[C@@H]5CO[C@@](Cn6nccn6)(c6cccc(Cl)c6)O5)cc4)CC3)cc2)c1=O` (stereo partly shown) [Compound 33]: 0.5 to 5 µM; for `CCC(C)n1ncn(-c2ccc(N3CCN(c4ccc(OC[C@@H]5CO[C@@](Cn6nccn6)(c6ccc(-c7ccccc7)cc6)O5)cc4)CC3)cc2)c1=O` (stereo partly shown) [Compound 72]: 5 to 30 µM.
Take `CCC(C)n1cnn(-c2ccc(N3CCN(c4ccc(OC[C@@H]5CO[C@@](Cn6nc7ccccc7n6)(c6ccc(Cl)cc6Cl)O5)cc4)CC3)cc2)c1=O` (stereo partly shown) [Compound 16]: the concentration for a half-maximal effect (EC50) lay in the range of 5 to 30 µM.
The same measure for `CC(C)Cn1ncn(-c2ccc(N3CCN(c4ccc(OC[C@@H]5CO[C@@](Cn6cncn6)(c6ccc(F)cc6F)O5)cc4)CC3)cc2)c1=O` [Compound 14]: 5 to 30 µM; for `CCC(C)n1ncn(-c2ccc(N3CCN(c4ccc(OC[C@@H]5CO[C@@](Cn6nccn6)(c6cccc7ccccc67)O5)cc4)CC3)cc2)c1=O` (stereo partly shown) [Compound 63]: 5 to 30 µM.
The same measure for `CCC(C)n1ncn(-c2ccc(N3CCN(c4ccc(OC[C@@H]5CO[C@@](Cn6cnc7ccccc76)(c6ccc(Cl)cc6Cl)O5)cc4)CC3)cc2)c1=O` (stereo partly shown) [Compound 20]: 0.5 to 5 µM; for `CCC(C)n1ncn(-c2ccc(N3CCN(c4ccc(OC[C@@H]5CO[C@@](Cn6nccn6)(C6CCNCC6)O5)cc4)CC3)cc2)c1=O` (stereo partly shown) [Compound 93]: 5 to 30 µM; for `CCC(C)n1ncn(-c2ccc(N3CCN(c4ccc(OC[C@@H]5CO[C@@](Cn6nccn6)(c6ccc(Cl)cc6Cl)O5)cc4C)CC3)cc2)c1=O` (stereo partly shown) [Compound 50]: 0.5 to 5 µM.
Compound `CCC(C)n1ncn(-c2ccc(N3CCN(c4ccc(OC[C@@H]5CO[C@@](Cn6nccn6)(c6ccc(OC)cc6)O5)cc4)CC3)cc2)c1=O` (stereo partly shown) [Compound 39] displayed a half-maximal effective concentration (EC50) of 0.5 to 5 µM.
With `CCc1cc(OC[C@@H]2CO[C@@](Cn3nccn3)(c3ccc(Cl)cc3Cl)O2)ccc1N1CCN(c2ccc(-n3cnn(C(C)CC)c3=O)cc2)CC1` (stereo partly shown) [Compound 81] the figure was 5 to 30 µM; with `CCC(C)n1ncn(-c2ccc(N3CCN(c4ccc(OC[C@@H]5CO[C@@](Cn6nccn6)(C6CCOCC6)O5)cc4)CC3)cc2)c1=O` (stereo partly shown) [Compound 92], 5 to 30 µM; with `CC(O)C(C)n1ncn(-c2ccc(N3CCN(c4ccc(OC[C@@H]5CO[C@@](Cn6nccn6)(c6ccc(Cl)cc6Cl)O5)cc4)CC3)cc2)c1=O` (stereo partly shown) [Compound 28], 0.5 to 5 µM.
With `CCc1ccc([C@]2(Cn3nccn3)OC[C@@H](COc3ccc(N4CCN(c5ccc(-n6cnn(C(C)CC)c6=O)cc5)CC4)cc3)O2)cc1` (stereo partly shown) [Compound 34] the figure was 0.5 to 5 µM.
`CCC(C)n1ncn(-c2ccc(N3CCN(c4ccc(OC[C@@H]5CO[C@@](Cn6nccn6)(C6CCCCC6)O5)cc4)CC3)cc2)c1=O` (stereo partly shown) [Compound 58] displayed an EC50 of 5 to 30 µM.
With `CCC(C)n1ncn(-c2ccc(N3CCN(c4ccc(OC[C@@H]5CO[C@@](Cn6nccn6)(c6nccs6)O5)cc4)CC3)cc2)c1=O` (stereo partly shown) [Compound 78] the figure was 5 to 30 µM; with `CC[C@@H]([C@H](C)O)n1ncn(-c2ccc(N3CCN(c4ccc(OC[C@@H]5CO[C@@](Cn6cncn6)(c6ccc(F)cc6F)C5)cc4)CC3)cc2)c1=O` (racemic) [POS, reference compound], 5 to 30 µM.

For the origin of these results see patent US9981956B2, “Small molecule inhibitors of fibrosis” (THE CALIFORNIA INSTITUTE FOR BIOMEDICAL RESEARCH, priority 2013, dated 2018).
